From patent US10426775B2, “Methods for treating Friedreich's ataxia with etravirine” (Fratagene Therapeutics srl, priority 2017, dated 2019)

Tests used:
Assay type in all cases: cell-based, human
[1] = test system: frataxin precursor; assay: Western blot of frataxin in HEK293 Flp-In cells stably transfected with frataxin (HEK293-fxn)
Method: For the validation steps, etravirine (TMC125) was purchased from Selleckchem and was dissolved in DMSO at a stock concentration of 10 mM. HEK-293 Flp-In cells, stably overexpressing frataxin, were treated with the drug (or only DMSO) for 24 hours at final concentration of 10 μM. FRDA cells were treated with different concentration of etravirine. For all drug (and no drug) treatments, the final concentration of DMSO in the cell culture medium was 0.1%.
Total cell extracts were prepared in lysis buffer (50 mM Tris-HCl, pH 7.5, 150 mM NaCl, 1% Igepal CA-630, 5 mM EDTA, 5 mM EGTA) supplemented with complete protease inhibitor cocktail (Roche Diagnostics, Indianapolis, Ind., USA). […] The immunoreactive bands were detected by ECL (GE Healthcare, Chalfont St. Giles, UK) and imaged with a ChemiDoc XRS system (Bio-Rad). […] All values are expressed as means±1 S.E.M.
(§1) The identified candidate drugs were individually validated for their ability to promote frataxin accumulation in different cell types. […] Protein extracts from the cell lines were resolved on SDS-PAGE and analyzed by western blot with anti-frataxin antibody and anti-tubulin as a loading control. […]
HEK 293-fxn stably expressing frataxin (A), HEK 293 (B), or FRDA lymphoblast cell line GM16203 (C) were treated with 10 μM etravirine for the indicated time points. Protein extracts were resolved on SDS-PAGE and analyzed by western blot with anti-frataxin antibody and anti-tubulin as a loading control. […] Quantitative analysis of newly-synthesized FXN mRNA was performed by metabolic labeling of nascent RNA using the Click-iT Nascent RNA Capture Kit (Life Technologies), followed by biotin conjugation and isolation with streptavidin beads, according to provider instructions. Nascent frataxin transcripts levels were quantitated by real-time PCR relative to the expression of the control genes ACTB, GUSB and ATP5J. […] Relative levels of total frataxin mRNA were measured by real-time PCR and normalized on expression levels of three control genes ATP5J, GUSB and ACTB using the ΔΔCt method. […]

[2] = test system: frataxin precursor; assay: Western blot of frataxin in HEK293 cells expressing only endogenous frataxin; settings: 10 μM etravirine
Method: Total cell extracts were prepared in lysis buffer (50 mM Tris-HCl, pH 7.5, 150 mM NaCl, 1% Igepal CA-630, 5 mM EDTA, 5 mM EGTA) supplemented with complete protease inhibitor cocktail (Roche Diagnostics, Indianapolis, Ind., USA). Lysates were clarified by centrifugation and supernatants were mixed with 4× Laemmli sample buffer (50 mM Tris pH 6.8, 2% SDS, 10% gliycerol, 0.0025% bromophenol blue, 5% beta-mercaptoethanol), boiled for 5 min, resolved by precast 12% SDS-PAGE gels (Bio-Rad Laboratories, Hercules, Calif., USA) and transferred to […] nitrocellulose membrane (TRANS-BLOT® TURBO™ Transfer pack, Bio-Rad). […] The immunoreactive bands were detected by ECL (GE Healthcare, Chalfont St. Giles, UK) and imaged with a ChemiDoc XRS system (Bio-Rad). […] All values are expressed as means±1 S.E.M.
as §1
HEK 293-fxn stably expressing frataxin (A), HEK 293 (B), or FRDA lymphoblast cell line GM16203 (C) were treated with 10 μM etravirine for the indicated time points. Protein extracts were resolved on SDS-PAGE and analyzed by western blot with anti-frataxin antibody and anti-tubulin as a loading control. […]

[3] = test system: GM16214 and GM16215 lymphoblasts; assay: Cell viability (XTT) after H2O2 treatment of lymphoblasts; settings: 500 nM etravirine 24 h
Method: Cells were treated with etravirine 500 nM for 24 h, then transferred (40000 cells/100 ul/well) into 96-well tissue culture plates. Cultures were supplemented for 16 h with 12.5 μM, 25 μM and 50 μM H2O2 (Sigma-Aldrich). After H2O2 treatment, 1 mg/ml XTT (2,3-Bis-(2-Methoxy-4-Nitro-5-Sulfophenyl)-2H-Tetrazolium-5-Carboxanilide) (INVITROGEN™, Thermo Fisher Scientific, Waltham, Mass. USA) and 0.25% Phenazine methosulfate (PMS, Fisher Scientific, Thermo Fisher Scientific, Waltham, Mass. USA) were added (25 μL/well) and cells were incubated for additional 2 h. Results were expressed as the percentage of reduction of absorbance at 450 nm by calibration with the absorbance of the control (untreated) cells. […]
FIGS. 6A to 6E show how etravirine functionally can rescue frataxin deficiency in FRDA patient cells. […] Cell extracts were resolved on SDS-PAGE and analysed by western blot with anti-frataxin antibody and anti-tubulin as a loading control. […] Aconitase activity was measured spectrophotometrically at 340 nm as described in the Methods section. Data represent the average of three (C) or five (D) independent experiments±S.E.M. p-values were calculated with Student's t-test (*p<0.05) E): Lymphoblasts derived from FRDA patient (GM16214) or from the unaffected carrier parent (GM16215), were either treated with 500 nM etravirine for 24 hrs or with vehicle only. […]

[4] = test system: frataxin; assay: Western blot of frataxin in lymphoblastoid cell lines derived from FRDA patients; settings: GM16214, 500 nM etravirine, 24 and 48 hours, compared with GM16215

## Cc1cc(C#N)cc(C)c1Oc1nc(Nc2ccc(C#N)cc2)nc(N)c1Br [etravirine]
[1]; HEK293-fxn, 10 μM of each candidate drug, 24 h
  increase in frataxin precursor levels (densitometric ratio frataxin precursor/tubulin): striking upregulation
[1]; HEK293-fxn, etravirine at 10 (μM), detectable after 4 hours, higher after 12 hours
  amount of frataxin precursor: rapid and robust increase
[1]; etravirine vs general proteasome inhibitor MG132, cell system not stated
  frataxin accumulation compared with MG132 treatment: strikingly stronger
[2]
  frataxin precursor accumulation: can also be detected
[3]; GM16214 patient lymphoblasts, then 12.5, 25, 50 μM H2O2 for 16 h
  protection from H2O2-induced cell death: significantly protects
[3]; GM16215 lymphoblasts, then H2O2 for 16 h
  cell viability after H2O2 in healthy control cells upon etravirine treatment: no further improvement
[4]
  frataxin levels in FRDA cells during etravirine treatment: increase over time
